In ChEMBL document CHEMBL5257106, “Design, synthesis, and biological evaluation of novel HDAC inhibitors with a 3-(benzazol-2-yl)quinoxaline framework” (Bioorg Med Chem Lett, 2023):
Active and inactive are the calls of the source. The calls are words filed in the database; no cut-off is given here.

What was measured:
HCT-116 [1] = test: Inhibition of cell migration in human HCT-116 cells measured upto 12 hrs by wound healing assay; type: functional, cell-based; details: dose 0.5-1 µM
[2] = Cytotoxicity against HUVEC cells assessed as inhibition of cell growth by MTT assay; details: human
HCT-116 [3] = test: Induction of apoptosis in human HCT-116 cells assessed as viable cells at 1 uM incubated for 24 hrs by Annexin V-FITC/PI staining based flow cytometry analysis (reference value: 93.2%); type: functional; details: Homo sapiens, HCT-116, read-out: Activity
HCT-116 [4] = test: Induction of apoptosis in human HCT-116 cells assessed as upregulation of cleaved PARP expression at 0.5 to 1 uM incubated for 24 hrs by Western blot analysis; type: functional, cell-based; details: dose 0.5-1 µM
Histone deacetylase 2 = Histone deacetylase 2 (Homo sapiens, UniProt Q92769); test: Inhibition of HDAC2 (unknown origin)
HCT-116 [5] = test: Antiproliferative activity against human HCT-116 cells assessed as inhibition of cell growth by MTT assay; type: functional, cell-based
HCT-116 [6] = test: Induction of apoptosis in human HCT-116 cells assessed as viable cells at 0.5 uM incubated for 24 hrs by Annexin V-FITC/PI staining based flow cytometry analysis (reference value: 93.2%); type: functional; details: read-out: Activity
A2780 = test: Antiproliferative activity against human A2780 cells assessed as inhibition of cell growth by MTT assay; type: functional, cell-based
HCT-116 [7] = test: Induction of cell cycle arrest in human HCT-116 assessed as decrease in G0/G1 phase cells at 1 uM incubated for 48 hrs by flow cytometric analysis (reference value: 63.51%); type: functional; design: scale not given: the % may be the effect or the level left
Histone deacetylase 1 = Histone deacetylase 1 (Homo sapiens, UniProt Q13547); test: Inhibition of HDAC1 (unknown origin)
[8] = target: T1, Histone deacetylase (Homo sapiens) (UniProt Q13547+O15379+Q9UBN7+Q92769+Q9UQL6+Q8WUI4+Q9BY41+Q96DB2+P56524+Q9UKV0+Q969S8); test: Inhibition of HDAC in human HCT-116 cells assessed as increase in alpha tubulin acetylation incubated for 24 hrs by Western blot analysis; type: cell-based; details: dose 0.5-1 µM
RS4-11 [9] = test: Antiproliferative activity against human RS4-11 cells assessed as inhibition of cell growth by MTT assay; type: functional, cell-based
HCT-116 [10] = test: Induction of apoptosis in human HCT-116 cells assessed as total apoptotic cells at 0.5 uM incubated for 24 hrs by Annexin V-FITC/PI staining based flow cytometry analysis (reference value: 6.823%); type: functional
[11] = target: T2, DNA topoisomerase 1 (Homo sapiens) (UniProt P11387); test: Inhibition of topoisomerase 1 in human HCT-116 cells assessed as suppression of Topo 1 protein expression incubated for 24 hrs by Western blot analysis; type: cell-based; details: dose 0.5-1 µM
T2 sequence (whole entry): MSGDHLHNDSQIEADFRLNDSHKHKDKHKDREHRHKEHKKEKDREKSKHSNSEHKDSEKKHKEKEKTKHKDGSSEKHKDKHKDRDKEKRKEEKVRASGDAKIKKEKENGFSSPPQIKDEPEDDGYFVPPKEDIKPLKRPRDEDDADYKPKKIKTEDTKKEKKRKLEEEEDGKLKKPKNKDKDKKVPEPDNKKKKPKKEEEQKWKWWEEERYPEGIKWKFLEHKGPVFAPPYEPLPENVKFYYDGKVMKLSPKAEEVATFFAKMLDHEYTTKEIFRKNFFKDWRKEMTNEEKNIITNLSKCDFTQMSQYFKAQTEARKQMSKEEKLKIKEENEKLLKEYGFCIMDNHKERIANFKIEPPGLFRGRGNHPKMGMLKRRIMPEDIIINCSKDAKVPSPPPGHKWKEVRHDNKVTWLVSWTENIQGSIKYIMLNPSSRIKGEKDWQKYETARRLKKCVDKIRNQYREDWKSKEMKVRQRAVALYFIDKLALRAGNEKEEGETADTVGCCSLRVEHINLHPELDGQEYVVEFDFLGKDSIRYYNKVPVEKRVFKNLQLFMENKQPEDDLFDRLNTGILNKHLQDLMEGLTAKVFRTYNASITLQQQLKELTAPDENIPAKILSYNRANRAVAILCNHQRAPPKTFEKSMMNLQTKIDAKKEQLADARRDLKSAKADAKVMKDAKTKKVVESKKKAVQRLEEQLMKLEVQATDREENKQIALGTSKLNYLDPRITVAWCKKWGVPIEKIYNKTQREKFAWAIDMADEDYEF

[12] = target: T2, DNA topoisomerase 1 (Homo sapiens); test: Inhibition of topoisomerase 1 (unknown origin) mediated DNA relaxation assessed as delay in pBR322 DNA migration by gel electrophoresis assay
HCT-116 [13] = test: Induction of apoptosis in human HCT-116 cells assessed as late apoptotic cells at 0.5 uM incubated for 24 hrs by Annexin V-FITC/PI staining based flow cytometry analysis (reference value: 0.323%); type: functional
HCT-116 [14] = test: Induction of apoptosis in human HCT-116 cells assessed as total apoptotic cells at 1 uM incubated for 24 hrs by Annexin V-FITC/PI staining based flow cytometry analysis (reference value: 6.823%); type: functional
[15] = target: T1, Histone deacetylase (Homo sapiens); test: Inhibition of HDAC in human HCT-116 cells assessed as increase in histone H3 acetylation incubated for 24 hrs by Western blot analysis; type: cell-based; details: dose 0.5-1 µM
PANC-1 = test: Antiproliferative activity against human PANC-1 cells assessed as inhibition of cell growth by MTT assay; type: functional, cell-based
HCT-116 [16] = test: Induction of cell cycle arrest in human HCT-116 assessed as decrease in G0/G1 phase cells at 0.5 uM incubated for 48 hrs by flow cytometric analysis (reference value: 63.51%); type: functional; design: scale not given: the % may be the effect or the level left
HCT-116 [17] = test: Induction of apoptosis in human HCT-116 cells assessed as decrease in Bcl-2 protein expression incubated for 24 hrs by Western blot analysis; type: functional, cell-based; details: dose 0.5-1 µM
HCT-116 [18] = test: Induction of apoptosis in human HCT-116 cells assessed as necrotic cells at 0.5 uM incubated for 24 hrs by Annexin V-FITC/PI staining based flow cytometry analysis (reference value: 0.00%); type: functional
Histone deacetylase 4 = Histone deacetylase 4 (Homo sapiens, UniProt P56524); test: Inhibition of HDAC4 (unknown origin)
RS4-11 [19] = test: Potency index, ratio of SAHA IC50 to test compound IC50 for antiproliferative activity against human RS4-11 cells assessed as inhibition of cell growth by MTT assay; type: functional
MCF7 = test: Antiproliferative activity against human MCF7 cells assessed as inhibition of cell growth by MTT assay; type: functional, cell-based
K562 [20] = test: Potency index, ratio of SAHA IC50 to test compound IC50 for antiproliferative activity against human K562 cells assessed as inhibition of cell growth by MTT assay; type: functional
HCT-116 [21] = test: Induction of apoptosis in human HCT-116 cells assessed as early apoptotic cells at 0.5 uM incubated for 24 hrs by Annexin V-FITC/PI staining based flow cytometry analysis (reference value: 6.50%); type: functional
HCT-116 [22] = test: Induction of cell cycle arrest in human HCT-116 assessed as increase in G2/M phase cells at 0.5 uM incubated for 48 hrs by flow cytometric analysis (reference value: 23.70%); type: functional
K562 [23] = test: Antiproliferative activity against human K562 cells assessed as inhibition of cell growth by MTT assay; type: functional, cell-based
HCT-116 [24] = test: Induction of apoptosis in human HCT-116 cells assessed as early apoptotic cells at 1 uM incubated for 24 hrs by Annexin V-FITC/PI staining based flow cytometry analysis (reference value: 6.50%); type: functional

Sequence of Histone deacetylase 1 (Q13547 whole entry): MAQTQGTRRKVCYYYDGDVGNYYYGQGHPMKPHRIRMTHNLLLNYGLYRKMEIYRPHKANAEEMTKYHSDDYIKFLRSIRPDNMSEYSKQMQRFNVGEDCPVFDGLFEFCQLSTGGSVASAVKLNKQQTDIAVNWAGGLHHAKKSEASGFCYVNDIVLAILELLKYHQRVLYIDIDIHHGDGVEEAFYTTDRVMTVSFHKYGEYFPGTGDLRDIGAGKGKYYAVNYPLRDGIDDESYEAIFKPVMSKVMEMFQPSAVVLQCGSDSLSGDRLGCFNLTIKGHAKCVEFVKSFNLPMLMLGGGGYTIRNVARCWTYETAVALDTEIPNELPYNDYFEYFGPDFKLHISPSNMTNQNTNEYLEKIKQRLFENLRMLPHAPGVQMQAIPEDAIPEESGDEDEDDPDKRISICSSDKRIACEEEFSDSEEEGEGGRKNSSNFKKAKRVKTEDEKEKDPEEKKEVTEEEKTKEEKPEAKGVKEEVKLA
Sequence of Histone deacetylase 4 (P56524 whole entry): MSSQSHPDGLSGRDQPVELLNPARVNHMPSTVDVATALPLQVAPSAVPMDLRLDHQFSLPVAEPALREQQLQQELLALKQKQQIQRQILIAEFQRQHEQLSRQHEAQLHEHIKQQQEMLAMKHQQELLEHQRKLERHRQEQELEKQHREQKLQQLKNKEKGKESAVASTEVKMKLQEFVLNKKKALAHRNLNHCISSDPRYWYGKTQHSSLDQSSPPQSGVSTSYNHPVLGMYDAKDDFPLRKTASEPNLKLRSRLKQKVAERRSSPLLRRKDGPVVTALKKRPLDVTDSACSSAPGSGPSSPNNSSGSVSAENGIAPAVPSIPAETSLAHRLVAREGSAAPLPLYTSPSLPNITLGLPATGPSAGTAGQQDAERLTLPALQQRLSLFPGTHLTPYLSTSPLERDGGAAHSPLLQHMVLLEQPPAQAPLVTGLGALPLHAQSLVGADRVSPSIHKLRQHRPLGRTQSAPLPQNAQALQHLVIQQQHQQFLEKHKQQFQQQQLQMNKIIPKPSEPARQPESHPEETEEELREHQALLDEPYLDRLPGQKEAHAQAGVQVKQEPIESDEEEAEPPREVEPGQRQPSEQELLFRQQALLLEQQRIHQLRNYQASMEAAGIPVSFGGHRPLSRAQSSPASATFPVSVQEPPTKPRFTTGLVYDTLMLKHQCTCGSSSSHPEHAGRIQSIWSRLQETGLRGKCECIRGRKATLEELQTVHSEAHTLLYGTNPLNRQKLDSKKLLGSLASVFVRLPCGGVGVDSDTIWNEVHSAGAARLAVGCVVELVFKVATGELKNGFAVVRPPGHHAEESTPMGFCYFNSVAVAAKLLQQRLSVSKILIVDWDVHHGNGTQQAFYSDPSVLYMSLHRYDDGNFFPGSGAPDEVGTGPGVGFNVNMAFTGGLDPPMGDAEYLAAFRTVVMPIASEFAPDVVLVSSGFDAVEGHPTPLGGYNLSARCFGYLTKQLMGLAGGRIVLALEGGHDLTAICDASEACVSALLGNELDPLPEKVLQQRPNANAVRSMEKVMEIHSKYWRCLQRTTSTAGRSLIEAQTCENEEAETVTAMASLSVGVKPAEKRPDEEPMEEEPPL
Sequence of Histone deacetylase 2 (Q92769 whole entry): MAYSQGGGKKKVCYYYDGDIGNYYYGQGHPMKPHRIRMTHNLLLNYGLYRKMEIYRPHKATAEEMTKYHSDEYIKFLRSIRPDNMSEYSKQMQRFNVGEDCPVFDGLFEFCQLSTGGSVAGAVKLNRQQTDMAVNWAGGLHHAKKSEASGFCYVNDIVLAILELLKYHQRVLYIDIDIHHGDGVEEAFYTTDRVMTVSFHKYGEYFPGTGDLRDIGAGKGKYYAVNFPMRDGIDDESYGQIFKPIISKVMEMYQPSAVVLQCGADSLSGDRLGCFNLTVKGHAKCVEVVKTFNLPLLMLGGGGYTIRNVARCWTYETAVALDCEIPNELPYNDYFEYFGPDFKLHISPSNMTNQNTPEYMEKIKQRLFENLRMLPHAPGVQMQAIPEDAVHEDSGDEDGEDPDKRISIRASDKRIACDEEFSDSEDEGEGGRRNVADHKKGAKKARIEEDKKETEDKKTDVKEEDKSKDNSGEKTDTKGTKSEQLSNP

For `O=C(CCCCCCNc1nc2ccccc2nc1-c1nc2ccccc2o1)NO`, the inhibition (HCT-116 [1]) was “Dose-Dependent Effect”, the IC50 [2] was 19.1 µM and the viability at 1 µM (HCT-116 [3]) was 48.1%. The Activity (HCT-116 [4]) was “Active”, the IC50 (Histone deacetylase 2) was 0.0344 µM and the IC50 (HCT-116 [5]) was 0.91 µM. It also gave a viability at 0.5 µM (HCT-116 [6]) of 64.5%, an IC50 (A2780) of 1.76 µM and an Activity (HCT-116 [7]) of 46.57%. The IC50 (Histone deacetylase 1) was 0.011 µM, the inhibition [8] was “Dose-Dependent Effect” and the IC50 (RS4-11 [9]) was 0.89 µM. For the same compound, the Activity (HCT-116 [10]) was 35.31%, the inhibition [11] was “Dose-Dependent Effect” and the inhibition [12] was “Active”. The Activity (HCT-116 [13]) was 7.21%, the Activity (HCT-116 [14]) was 51.8% and the inhibition [15] was “Dose-Dependent Effect”. For the same compound, the IC50 (PANC-1) was 1.03 µM, the Activity (HCT-116 [16]) was 51.68% and the Activity (HCT-116 [17]) was “Dose-Dependent Effect”. For the same compound, the Activity (HCT-116 [18]) was 0.241%, the IC50 (Histone deacetylase 4) was 0.0155 µM and the “Ratio IC50” value (RS4-11 [19]) was 2. The IC50 (MCF7) was 1.27 µM, the “Ratio IC50” value (K562 [20]) was 2 and the Activity (HCT-116 [21]) was 28.1%. It also gave an Activity (HCT-116 [22]) of 36.67%, an IC50 (K562 [23]) of 0.89 µM and an Activity (HCT-116 [24]) of 34.5%.
